Assay results: US20040242572A1 (Boehringer Ingelheim International GmbH, priority 2002, published 2004)

molecular target: T1, hMCH-1R (Homo sapiens, UniProt Q99705); assay: MCH-1 receptor binding test (125I-MCH binding to membranes of hMCH-1R transfected CHO/Galpha16 cells); settings: 100 pM 125I-MCH, membranes of CHO/Galpha16 cells with hMCH-1R
T1 construct: expressed in transfected cells; host or cells: CHO/Galpha16 cells, stably transfected; membrane preparation
Method: Membranes from CHO/Galpha16 cells stably transfected with human hMCH-1R are resuspended using a syringe (needle 0.6×25 mm) and diluted in test buffer (50 mM HEPES, 10 mM MgCl2, 2 mM EGTA, pH 7.00; 0.1% bovine serum albumin (protease-free), 0.021% bacitracin, 1 μg/ml aprotinin, 1 μg/ml leupeptin and 1 μM phosphoramidone) to a concentration of 5 to 15 μg/ml. […] After the incubation the reaction is filtered using a cell harvester through 0.5% PEI treated glass fibre filters (GF/B, Unifilter Packard). The membrane-bound radioactivity retained on the filter is then determined after the addition of scintillator substance (Packard Microscint 20) in a measuring device (TopCount of Packard).
The non-specific binding is defined as bound radioactivity in the presence of 1 micromolar MCH during the incubation period.
The analysis of the concentration binding curve is carried out on the assumption of one receptor binding site.

T1 sequence (Q99705 whole entry): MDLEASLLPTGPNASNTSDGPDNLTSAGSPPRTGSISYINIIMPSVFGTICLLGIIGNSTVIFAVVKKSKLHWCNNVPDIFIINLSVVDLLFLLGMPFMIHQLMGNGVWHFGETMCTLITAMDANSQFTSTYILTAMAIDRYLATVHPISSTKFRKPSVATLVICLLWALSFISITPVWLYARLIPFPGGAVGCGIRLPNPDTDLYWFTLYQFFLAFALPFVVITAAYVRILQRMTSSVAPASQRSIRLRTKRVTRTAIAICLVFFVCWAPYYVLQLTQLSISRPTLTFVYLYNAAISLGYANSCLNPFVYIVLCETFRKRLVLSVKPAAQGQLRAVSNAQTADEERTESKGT

SMILES | IC50
Cc1ccc(C2CCN(C(=O)NCCc3ccc(CN4CCCC4)cc3)CC2)cc1 [Example 2.12, 4-methylphenyl-piperidine-1-carboxylic acid-[2-(4-pyrrolidin-1-ylmethyl-phenyl)-ethyl]-amide] | 30.5 nM
CCN(CC)Cc1ccc(CCNC(=O)c2ccc(-c3ccc(OC)cc3)cc2)cc1 [Example 2.4, 4′-methoxy-biphenyl-4-carboxylic acid-[2-(4-diethylaminomethyl-phenyl)-ethyl]-amide] | 3.5 nM
CN(C)Cc1ccc(CCn2cnc3cc(-c4ccc(Cl)cc4)ccc3c2=O)cc1 [Example 1.14, 7-(4-chloro-phenyl)-3-[2-(4-dimethylaminomethyl-phenyl)-ethyl]-3H-quinazolin-4-one] | 2.1 nM

test system: not given; assay: not given; settings: not given

SMILES | melting point
CN1CCN(c2ccc(CCn3cnc4cc(-c5ccc(Cl)cc5)ccc4c3=O)cn2)CC1 [Example 1.17, 7-(4-chloro-phenyl)-3-{2-[6-(4-methyl-piperazin-1-yl)-pyridin-3-yl]-ethyl}-3H-quinazolin-4-one] | 263 to 264 °C
O=c1c2ccc(-c3ccc(Cl)cc3)cc2nnn1CCc1ccc(CN2CCC(O)(c3ccccc3)CC2)cc1 | 265 to 266 °C
O=c1c2ccc(-c3ccc(Cl)cc3)cc2nnn1CCc1ccc(CN2CCC3(CCCCC3)CC2)cc1 [Example 1.30, 7-(4-chloro-phenyl)-3-{2-[4-(3-aza-spiro[5.5]undec-3-ylmethyl)-phenyl]-ethyl}-3H-benzo[d][1,2,3]triazin-4-one] | 165 to 166 °C
CN1CCN(C(=O)c2ccc(CCNC(=O)c3ccc(-c4ccc(Cl)cc4)cc3)cc2)CC1 [Example 2.51, 4′-chloro-biphenyl-4-carboxylic acid-{2-[4-(4-methyl-piperazine-1-carbonyl)-phenyl]-ethyl}-amide] | 217 to 218 °C
COC[C@@H]1CCCN1Cc1ccc(CCn2cnc3cc(-c4ccc(Cl)cc4)ccc3c2=O)cc1 [Example 1.13, 7-(4-chloro-phenyl)-3-{2-[4-((S)-2-methoxymethyl-pyrrolidin-1-ylmethyl)-phenyl]-ethyl}-3H-quinazolin-4-one] | 133 to 135 °C
O=c1c2ccc(-c3ccc(Cl)cc3)cc2ncn1CCc1ccc(CN2CCN(c3ccccc3)CC2)cc1 [Example 1.22, 7-(4-chloro-phenyl)-3-{2-[4-(4-phenyl-piperazin-1-ylmethyl)-phenyl]-ethyl}-3H-quinazolin-4-one] | 199 to 200 °C
O=c1[nH]c2cc(-c3ccc(Cl)cc3)ccc2c(=O)n1CCc1ccc(CN2CCCC2)cc1 [Example 1.12, 7-(4-chloro-phenyl)-3-[2-(4-pyrrolidin-1-ylmethyl-phenyl)-ethyl]-1H-quinazolin-2,4-dione] | 274 to 276 °C
O=c1c2ccc(-c3ccc(Cl)cc3)cc2nnn1Cc1ccc(CN2CCCC2)cc1 [Example 1.19, 7-(4-chloro-phenyl)-3-(4-pyrrolidin-1-ylmethyl-benzyl)-3H-benzo[d][1,2,3]triazin-4-one] | 147 to 148 °C
Cc1ccc(-c2ccc3c(=O)n(CCc4ccc(CN5CCCC5)cc4)cnc3c2)cc1 [Example 1.2, 3-[2-(4-Pyrrolidin-1-ylmethyl-phenyl)-ethyl]-7-p-tolyl-3H-quinazolin-4-one] | 157 to 158 °C
O=c1c2ccc(-c3ccc(Cl)cc3)cc2nnn1CCc1ccc(CN2CCC(c3ccccc3)CC2)cc1 [Example 1.28, 7-(4-chloro-phenyl)-3-{2-[4-(4-phenyl-piperidin-1-ylmethyl)-phenyl]-ethyl}-3H-benzo[d][1,2,3]triazin-4-one] | 183 to 184 °C
O=c1c2ccc(-c3ccc(Cl)cc3)cc2ncn1CCc1ccc(CN2CCOCC2)cc1 [Example 1.16, 7-(4-chloro-phenyl)-3-[2-(4-morpholin-4-ylmethyl-phenyl)-ethyl]-3H-quinazolin-4-one] | 169 to 170 °C
O=c1c2ccc(-c3ccc(Cl)cc3)cc2ncn1CCc1ccc(CN2CC=C(c3ccccc3)CC2)cc1 [Example 1.24, 7-(4-chloro-phenyl)-3-{2-[4-(4-phenyl-3.6-dihydro-2H-piperidin-1-ylmethyl)-phenyl]-ethyl}-3H-quinazolin-4-one] | 166 to 167 °C
O=c1c2ccc(-c3ccc(Cl)cc3)cc2nnn1CCc1ccc(CN2CCCC2)cc1 [Example 1.18, 7-(4-chloro-phenyl)-3-[2-(4-pyrrolidin-1-ylmethyl-phenyl)-ethyl]-3H-benzo[d][1,2,3]triazin-4-one] | 151 to 152 °C
COc1ccc(-c2ccc3c(=O)n(CCc4ccc(CN5CCCC5)cc4)cnc3c2)cc1 [Example 1.4, 7-(4-Methoxy-phenyl)-3-[2-(4-pyrrolidin-1-ylmethyl-phenyl)-ethyl]-3H-quinazolin-4-one] | 143 to 144 °C
O=c1c2ccc(-c3ccc(C(F)(F)F)cc3)cc2ncn1CCc1ccc(CN2CCCC2)cc1 [Example 1.3, 3-[2-(4-pyrrolidin-1-ylmethyl-phenyl)-ethyl]-7-(4-trifluormethyl-phenyl)-3H-quinazolin-4-one] | 179 to 181 °C
O=c1c2ccc(-c3ccc(Cl)c(Cl)c3)cc2ncn1CCc1ccc(CN2CCCC2)cc1 [Example 1.5, 7-(3,4-dichloro-phenyl)-3-[2-(4-pyrrolidin-1-ylmethyl-phenyl)-ethyl]-3H-quinazolin-4-one] | 148 to 149 °C
O=c1c2ccc(-c3ccc(Cl)cc3)cc2ncn1CCc1ccc(CN2CCC3(CCCCC3)CC2)cc1 [Example 1.25, 7-(4-chloro-phenyl)-3-{2-[4-(3-Aza-spiro[5.5]undec-3-ylmethyl)-phenyl]-ethyl}-3H-quinazolin-4-one] | 184 to 185 °C
O=c1c2ccc(-c3ccc(Cl)cc3)cc2ncn1CCc1ccc(CN2CCCCC2)cc1 [Example 1.15, 7-(4-chloro-phenyl)-3-[2-(4-piperidin-1-ylmethyl-phenyl)-ethyl]-3H-quinazolin-4-one] | 169 to 170 °C
O=c1c2ccc(-c3ccc(F)cc3)cc2ncn1CCc1ccc(CN2CCCC2)cc1 [Example 1.7, 7-(4-fluoro-phenyl)-3-[2-(4-pyrrolidin-1-ylmethyl-phenyl)-ethyl]-3H-quinazolin-4-one] | 160 to 161 °C
CCc1ccc(-c2ccc3c(=O)n(CCc4ccc(CN5CCCC5)cc4)cnc3c2)cc1 [Example 1.8, 7-(4-Ethyl-phenyl)-3-[2-(4-pyrrolidin-1-ylmethyl-phenyl)-ethyl]-3H-quinazolin-4-one] | 165 to 166 °C
O=c1c2ccc(-c3ccc(Cl)cc3)cc2ncn1CCc1ccc(CN2CCC(Oc3ccccn3)CC2)cc1 [Example 1.26, 7-(4-chloro-phenyl)-3-(2-{4-[4-(pyridin-2-yloxy)-piperidin-1-ylmethyl]-phenyl}-ethyl)-3H-quinazolin-4-one] | 154 to 158 °C
Cc1nc2cc(-c3ccc(Cl)cc3)ccc2c(=O)n1CCc1ccc(CN2CCCC2)cc1 [Example 1.11, 7-(4-chloro-phenyl)-2-methyl-3-[2-(4-pyrrolidin-1-ylmethyl-phenyl)-ethyl]-3H-quinazolin-4-one] | 160 to 163 °C
O=c1c2ccc(-c3ccc(Cl)cc3)cc2ncn1CCc1ccc(CN2CCC(O)(c3ccccc3)CC2)cc1 | 204 to 205 °C
O=c1c2ccc(-c3ccc(Cl)cc3)cc2ncn1CCc1ccc(CN2CCCC2)cc1 [Example 1.1, 7-(4-chloro-phenyl)-3-[2-(4-pyrrolidin-1-ylmethyl-phenyl)-ethyl]-3H-quinazolin-4-one] | 178 to 179 °C
CN1CCN(c2ccc(CCNC(=O)c3ccc(-c4ccc(Cl)cc4)cc3)cn2)CC1 [Example 2.50, 4′-chloro-biphenyl-4-carboxylic acid-{2-[6-(4-methyl-piperazin-1-yl)-pyridin-3-yl]-ethyl}-amide] | 211 to 213 °C
O=c1c2ccc(-c3ccc(Cl)cc3)cc2ncn1CCc1ccc(CN2CCC(c3ccccc3)CC2)cc1 [Example 1.21, 7-(4-chloro-phenyl)-3-{2-[4-(4-phenyl-piperidin-1-ylmethyl)-phenyl]-ethyl}-3H-quinazolin-4-one] | 178 to 179 °C
CN(C)Cc1ccc(CCn2cnc3cc(-c4ccc(Cl)cc4)ccc3c2=O)cc1 [Example 1.14, 7-(4-chloro-phenyl)-3-[2-(4-dimethylaminomethyl-phenyl)-ethyl]-3H-quinazolin-4-one] | 183 °C
O=c1c2ccc(-c3ccc(Cl)cc3)cc2ccn1CCc1ccc(CN2CCCC2)cc1 [Example 1.31, 6-(4-chloro-phenyl)-2-[2-(4-pyrrolidin-1-ylmethyl-phenyl)-ethyl]-2H-isoquinolin-1-one] | 136 to 137 °C
O=c1c2ccc(-c3ccc(Cl)cc3)cc2ncn1CCc1ccc(CN2CCC(Nc3ccccn3)CC2)cc1 [Example 1.27, 7-(4-chloro-phenyl)-3-(2-{4-[4-(pyridin-2-ylamino)-piperidin-1-ylmethyl]-phenyl}-ethyl)-3H-quinazolin-4-one] | 164 to 166 °C
